Reference: article PMC7041945, “Misfolded proteins bind and activate death receptor 5 to trigger apoptosis during unresolved endoplasmic reticulum stress” (eLife, 2020)

How the values were obtained:
HCT116 cells = experiment: Annexin V (and SytoxBlue) flow cytometry for apoptosis; type: cell-based, Homo sapiens; conditions: for Annexin V +, Sytox Blue + cells / Annexin V +, Sytox Blue - cells / Annexin V -, Sytox Blue - cells: transfected 24 hr
Method: Cells seeded in a 6-well plate were transfected with the specified plasmid for 24 hr and harvested via trypsinization in complete media to allow a 30 min recovery at 37°C. The samples were then centrifuged at 500xg for 5 min and resuspended In 150 μl of a 1:20 dilution of Annexin V-AlexaFluor 647 conjugate (Thermo Scientific #A23204). Samples were transferred to a 96-well U-bottom plate and incubated in the dark for 15 min at RT. The distribution of apoptotic cells was determined by flow cytometry on a BD LSR II.

GAPDH = experiment: qPCR of GAPDH (reference transcript); type: cell-based; conditions: Rep 2; for avg. fold induction GAPDH / fold induction GAPDH: relative to empty traffo
[1] = system: caspase 8 in HCT116 GFP-Trap immunoprecipitates; experiment: Caspase 8 activity (caspase glo 8) of GFP immunoprecipitates (beads); type: cell-based, Homo sapiens
Method: 15 cm dishes were seeded with 4 million HCT116 cells and allowed to recover for 18 hr prior to transfection. Samples were then transfected for 24 hr with the GFP-tagged ER trafficked protein, cytosolic GFP, or empty vector. To harvest apoptotic and living cells for each sample, all media and washes were collected. Cells were scraped in 2 ml of cold PBS and combined with the media and washes. Samples were centrifuged to pellet cells, washed with 1 ml cold PBS, and flash frozen in liquid N2 prior to lysis.
The cell pellets were resuspended in 750 μl of 30 mM HEPES pH 7.2, 150 mM NaCl, 1% Triton X-100 with 1x Roche protease inhibitor cocktail (if used subsequently for caspase glo 8 assay) or with 5x Roche protease inhibitor cocktail (if used for immunoblotting). The cells were lysed by mechanical shearing through a 25G needle for 13–15 plunges followed by incubation on ice for 30 min. The lysate was centrifuged at 2000xg for 5 min to remove debris and then incubated with 30 μl of GFP-Trap magnetic agarose beads (Chromotek gtma-20) for 4 hr at 4°C. The beads were then washed with 750 μl of lysis buffer for 10 min at 4°C for three rounds.
For measuring caspase activity, a fifth of the beads was resuspended in 40 μl of 30 mM HEPES pH 7.2, 150 mM NaCl, 1% Triton X-100. 10 μl of the resuspended mixture was incubated with 10 ul of the caspase glo 8 luminogenic substrate (Promega #PRG8200) for 45 min at RT before measuring luminescence.

[2] = system: XBP1 mRNA in HCT116 cells; experiment: RT-PCR for Xbp1 mRNA splicing; type: cell-based, Homo sapiens; conditions: HCT116, 24 hr
Method: Cells were grown in 6-well plates and harvested with 0.5 ml of TRIzol reagent (Life Technologies) per manufacturer's protocol to extract RNA. […] The reverse transcription product was diluted to 200 μl with 10 mM Tris-HCl pH 8.2 and used at 1:100 dilution for subsequent RT-PCR reactions. 2 μl of cDNA was added to 0.2 μM of forward and reverse primers ([…]; Hs_XBP1_Rev: [NT]), 0.2 mM of each dNTP, 0.5 units of Taq DNA polymerase (Thermo Scientific). The reaction was set at an annealing temperature of 60.5°C with an extension time of 30 s for 26 cycles.

[3] = empty + Tg, siRNA non-targeting, stain AnnexinV-647, 2018-06-27
[4] = siRNA scrambled, 2017-01-17 Replicate
[5] = siRNA scrambled, 2018-06-21 Rep 1
[6] = siRNA scrambled, 2018-06-21 Rep 2
[7] = siRNA scrambled, mean of 3 replicates

## C/C=C(/C)C(=O)O[C@H]1C(C)=C2[C@H]([C@@H]1OC(=O)CCCCCCC)[C@@](C)(OC(C)=O)C[C@H](OC(=O)CCC)[C@@]1(O)[C@H]2OC(=O)[C@@]1(C)O [thapsigargin, reference compound]
HCT116 cells; [3]
  AnnexinV+ (Statistic): 18.2
  AnnexinV- (Statistic): 81.8
HCT116 cells; empty w Tg vs. empty
  Difference between means: 28 ± 7.5
HCT116 cells; no siDR5, mean ± SEM, N=3, values agree with avg Annexin V+
  Mean ± SEM (Prism T-tests, Annexin V for MPZ-GFP): 35 ± 6.7 N=3
HCT116 cells; [4]
  Annexin V+: 48.1
  Annexin V-: 51.9
HCT116 cells; siRNA scrambled, 2018-01-17 MPZ, gate all cells/Single Cells/AnnexinV+, Tg sample with empty construct
  AnnexinV+ (Statistic, single cells): 48.1
HCT116 cells; siRNA scrambled, 2018-01-17 MPZ, gate all cells/Single Cells/AnnexinV-, Tg sample with empty construct
  AnnexinV- (Statistic, single cells): 51.9
HCT116 cells; siRNA scrambled, 2018-01-17 MPZ, gate all cells/Single Cells/GFP+, Tg sample with empty construct
  GFP+ (Statistic, single cells): 0.011
HCT116 cells; siRNA scrambled, 2018-01-17 MPZ, gate all cells/Single Cells/GFP-, Tg sample with empty construct
  GFP- (Statistic, single cells): 100
HCT116 cells; siRNA scrambled, 2018-01-17 MPZ, gate all cells/Single Cells/Q1, Tg sample with empty construct
  Q1: APC-A- , DAPI-A+ (Statistic, single cells): 10.8
HCT116 cells; siRNA scrambled, 2018-01-17 MPZ, gate all cells/Single Cells/Q2, Tg sample with empty construct
  Q2: APC-A+ , DAPI-A+ (Statistic, single cells): 31.2
HCT116 cells; siRNA scrambled, 2018-01-17 MPZ, gate all cells/Single Cells/Q3, Tg sample with empty construct
  Q3: APC-A+ , DAPI-A- (Statistic, single cells): 13.1
HCT116 cells; siRNA scrambled, 2018-01-17 MPZ, gate all cells/Single Cells/Q4, Tg sample with empty construct
  Q4: APC-A- , DAPI-A- (Statistic, single cells): 45
HCT116 cells; siRNA scrambled, 2018-01-17 MPZ, gate all cells/Single Cells/SytoxBlue+, Tg sample with empty construct
  SytoxBlue+ (Statistic, single cells): 40.3
HCT116 cells; siRNA scrambled, 2018-01-17 MPZ, gate all cells/Single Cells/SytoxBlue-, Tg sample with empty construct
  SytoxBlue- (Statistic, single cells): 59.7
HCT116 cells; siRNA scrambled, 2018-01-17 MPZ, gate dead cells of all events, Tg sample with empty construct
  dead cells (Statistic): 26.5
HCT116 cells; siRNA scrambled, 2018-01-17 MPZ, gate dead cells/Single Cells/FITC-A+, Tg sample with empty construct
  FITC-A+ (Statistic, dead cells): 0.016
HCT116 cells; siRNA scrambled, 2018-01-17 MPZ, gate dead cells/Single Cells/FITC-A-, Tg sample with empty construct
  FITC-A- (Statistic, dead cells): 100
HCT116 cells; [5]
  Annexin V+: 32.2
  Annexin V-: 67.8
HCT116 cells; [6]
  Annexin V+: 25.7
  Annexin V-: 74.3
HCT116 cells; [7]
  avg Annexin V+: 35.3333
  avg Annexin V-: 64.6667
GAPDH; 24 hr, mean of 3 replicates
  Cq GAPDH: 18.752
  avg. fold induction GAPDH: 1.009
GAPDH; 24 hr, replicate 1
  fold induction GAPDH: 0.7989
  2^-(deltaCq) GAPDH: 0.8014
  Cq GAPDH: 19.0714
  Cq(sample) - avg Cq(GAPDH), GAPDH: 0.3194
GAPDH; 24 hr, replicate 2
  fold induction GAPDH: 1.157
  2^-(deltaCq) GAPDH: 1.161
  Cq GAPDH: 18.5367
  Cq(sample) - avg Cq(GAPDH), GAPDH: -0.2154
GAPDH; 24 hr, replicate 3
  fold induction GAPDH: 1.071
  2^-(deltaCq) GAPDH: 1.075
  Cq GAPDH: 18.648
  Cq(sample) - avg Cq(GAPDH), GAPDH: -0.104

## FTWRYQPEGGRDAISIFHYA [MPZ-ecto peptide-eGFP, expressed construct: MPZ ectodomain replaced by the MPZ-ecto peptide, GFP-tagged]
HCT116 cells; HCT116, 24 hr, relative to empty vector or WT
  annexin V staining: increased annexin V staining relative to the empty vector
HCT116 cells; + z-VAD
  Annexin V +, Sytox Blue + cells: 8.37% of cells
HCT116 cells; + z-VAD (20 μm [sic])
  Annexin V +, Sytox Blue - cells: 3.77% of cells
  Annexin V -, Sytox Blue - cells: 86.3% of cells
HCT116 cells; no z-VAD
  Annexin V +, Sytox Blue + cells: 19.1% of cells
  Annexin V +, Sytox Blue - cells: 11.5% of cells
  Annexin V -, Sytox Blue - cells: 65.3% of cells

## INS-GFP: GFP-tagged proinsulin expressed from plasmid
HCT116 cells; HCT116, transfected 24 hr, Nt or DR5 siRNA
  PARP cleavage and annexin V staining: induced PARP cleavage and annexin V staining in a DR5-dependent manner
HCT116 cells; siDR5, N=3
  Mean ± SEM (siDR5), Annexin V: 19 ± 1.7 N=3
HCT116 cells; siDR5 vs. siNt
  95% confidence interval of difference, Annexin V: -25 to -8.3
  Difference between means, Annexin V: -17 ± 2.9
HCT116 cells; siNt, N=3
  Mean ± SEM (siNt), Annexin V: 35 ± 2.4 N=3
[1]; GFPTrap beads, relative to GFP, n=2
  Mean ± SEM (IP): 1.500 ± 0.1400, n=2
[1]; Rep 1
  fold change relative to GFP (GFPTrap beads): 1.64 fold change
[1]; Rep 2
  fold change relative to GFP (GFPTrap beads): 0.68 fold change
[1]; Rep 3
  fold change relative to GFP (GFPTrap beads): 1.36 fold change
[1]; replicate 1
  GFPTrap beads RLUs: 115.391 RLUs
[1]; replicate 2
  GFPTrap beads RLUs: 47.845 RLUs
[1]; replicate 3
  GFPTrap beads RLUs: 95.69 RLUs
[1]; vs. GFP
  95% confidence interval of difference (IP): 0.1175 to 0.8825
  Difference between means (IP): 0.5000 ± 0.1202
[2]
  XBP1 mRNA splicing: induced XBP1 mRNA splicing
GAPDH; 3 hr, mean of 3 replicates
  Cq GAPDH: 19.1619
  avg. fold induction GAPDH: 1
GAPDH; 3 hr, replicate 1
  fold induction GAPDH: 0.8888
  2^-(deltaCq) GAPDH: 0.8916
  Cq GAPDH: 19.3274
  Cq(sample) - avg Cq(GAPDH), GAPDH: 0.1655
GAPDH; 3 hr, replicate 2
  fold induction GAPDH: 1.06
  2^-(deltaCq) GAPDH: 1.064
  Cq GAPDH: 19.0729
  Cq(sample) - avg Cq(GAPDH), GAPDH: -0.08892
GAPDH; 3 hr, replicate 3
  fold induction GAPDH: 1.051
  2^-(deltaCq) GAPDH: 1.055
  Cq GAPDH: 19.0852
  Cq(sample) - avg Cq(GAPDH), GAPDH: -0.07662
GAPDH; 7 hr, mean of 3 replicates
  Cq GAPDH: 19.3003
  avg. fold induction GAPDH: 1.004
GAPDH; 7 hr, replicate 1
  fold induction GAPDH: 0.8393
  2^-(deltaCq) GAPDH: 0.842
  Cq GAPDH: 19.5485
  Cq(sample) - avg Cq(GAPDH), GAPDH: 0.2482
GAPDH; 7 hr, replicate 2
  fold induction GAPDH: 1.091
  2^-(deltaCq) GAPDH: 1.094
  Cq GAPDH: 19.1708
  Cq(sample) - avg Cq(GAPDH), GAPDH: -0.1295
GAPDH; 7 hr, replicate 3
  fold induction GAPDH: 1.082
  2^-(deltaCq) GAPDH: 1.086
  Cq GAPDH: 19.1817
  Cq(sample) - avg Cq(GAPDH), GAPDH: -0.1186
GAPDH; 24 hr, mean of 3 replicates
  Cq GAPDH: 19.7046
  avg. fold induction GAPDH: 1.006
GAPDH; 24 hr, replicate 1
  fold induction GAPDH: 0.8281
  2^-(deltaCq) GAPDH: 0.8307
  Cq GAPDH: 19.9722
  Cq(sample) - avg Cq(GAPDH), GAPDH: 0.2676
GAPDH; 24 hr, replicate 2
  fold induction GAPDH: 1.042
  2^-(deltaCq) GAPDH: 1.045
  Cq GAPDH: 19.6413
  Cq(sample) - avg Cq(GAPDH), GAPDH: -0.06334
GAPDH; 24 hr, replicate 3
  fold induction GAPDH: 1.149
  2^-(deltaCq) GAPDH: 1.1521
  Cq GAPDH: 19.5004
  Cq(sample) - avg Cq(GAPDH), GAPDH: -0.2043
